According to ChEMBL document CHEMBL4765476, “MCC950, a NLRP3 inhibitor, ameliorates lipopolysaccharide-induced lung inflammation in mice” (Bioorg Med Chem, 2021):
Active and inactive are the calls of the source. The rule behind the calls is not given here.

How the values were obtained:
[1] = test system: Mus musculus; assay: Antiinflammatory activity in ICR mouse assessed as reduction in LPS-induced neutrophils in BALF at 50 mg/kg, INH administered 18 hrs before LPS-stimulation and measured after 24 hrs by FACS analysis relative to control; assay type: functional; details: time 42 hrs
[2] = test system: Mus musculus; assay: Antiinflammatory activity in ICR mouse assessed as reduction in LPS-induced neutrophil infiltration in lungs at 50 mg/kg, INH administered 18 hrs before LPS-stimulation and measured after 24 hrs by H and E staining based imaging analysis relative to control; assay type: functional; details: time 42 hrs
[3] = organism: Mus musculus; details: ICR, dose 50.0 mg/kg, time 42.0 hrs
[4] = test system: Mus musculus; assay: Antiinflammatory activity in ICR mouse assessed as reduction in LPS-induced neutrophil infiltration in lungs at 10 mg/kg, ip administered 18 hrs before LPS-stimulation and measured after 24 hrs by H and E staining based imaging analysis relative to control; assay type: functional; details: time 42 hrs
[5] = organism: Mus musculus; details: ICR, dose 10-50 mg/kg, time 42.0 hrs
[6] = test system: Mus musculus; assay: Antiinflammatory activity in ICR mouse assessed as reduction in LPS-induced neutrophil infiltration in lungs at 10 mg/kg, INH administered 18 hrs before LPS-stimulation and measured after 24 hrs by H and E staining based imaging analysis relative to control; assay type: functional; details: time 42 hrs
[7] = organism: Mus musculus; details: ICR, dose 10-50 mg/kg, time 42.0 hrs; remark: listed apart in the source
[8] = organism: Mus musculus; details: ICR, dose 10-50 mg/kg, time 42.0 hrs; remark: listed apart in the source
[9] = test system: Mus musculus; assay: Antiinflammatory activity in ICR mouse assessed as reduction in LPS-induced macrophages level in BALF at 50 mg/kg, INH administered 18 hrs before LPS-stimulation and measured after 24 hrs by FACS analysis relative to control; assay type: functional; details: time 42 hrs
[10] = test system: Mus musculus; assay: Antiinflammatory activity in ICR mouse assessed as reduction in LPS-induced macrophage level in BALF at 10 mg/kg, ip administered 18 hrs before LPS-stimulation and measured after 24 hrs by FACS analysis relative to control; assay type: functional; details: time 42 hrs
[11] = organism: Mus musculus; details: ICR, dose 10-50 mg/kg, time 42.0 hrs; remark: listed apart in the source
[12] = test system: Mus musculus; assay: Antiinflammatory activity in ICR mouse assessed as reduction in LPS-induced neutrophils in BALF at 50 mg/kg, ip administered 18 hrs before LPS-stimulation and measured after 24 hrs by FACS analysis relative to control; assay type: functional; details: time 42 hrs
[13] = organism: Mus musculus; details: ICR, dose 10-50 mg/kg, time 42.0 hrs; remark: listed apart in the source
[14] = organism: Mus musculus; details: ICR, dose 10-50 mg/kg, time 42.0 hrs; remark: listed apart in the source
[15] = organism: Mus musculus; details: ICR, dose 10-50 mg/kg, time 42.0 hrs; remark: listed apart in the source
[16] = test system: Mus musculus; assay: Antiinflammatory activity in ICR mouse assessed as reduction in LPS-induced neutrophils in BALF at 10 mg/kg, ip administered 18 hrs before LPS-stimulation and measured after 24 hrs by FACS analysis relative to control; assay type: functional; details: time 42 hrs
[17] = organism: Mus musculus; details: ICR, dose 10-50 mg/kg, time 42.0 hrs; remark: listed apart in the source
[18] = organism: Mus musculus; details: ICR, dose 10-50 mg/kg, time 42.0 hrs; remark: listed apart in the source
[19] = organism: Mus musculus; details: ICR, dose 10-50 mg/kg, time 42.0 hrs; remark: listed apart in the source
[20] = organism: Mus musculus; details: ICR, dose 10.0 mg/kg, time 42.0 hrs
[21] = test system: Mus musculus; assay: Antiinflammatory activity in ICR mouse assessed as reduction in LPS-induced lymphocyte level in BALF at 50 mg/kg, INH administered 18 hrs before LPS-stimulation and measured after 24 hrs by FACS analysis relative to control; assay type: functional; details: time 42 hrs
[22] = test system: Mus musculus; assay: Antiinflammatory activity in ICR mouse assessed as reduction in LPS-induced lymphocyte level in BALF at 50 mg/kg, ip administered 18 hrs before LPS-stimulation and measured after 24 hrs by FACS analysis relative to control; assay type: functional; details: time 42 hrs
[23] = organism: Mus musculus; details: ICR, dose 10-50 mg/kg, time 42.0 hrs; remark: listed apart in the source
[24] = organism: Mus musculus; details: ICR, dose 10-50 mg/kg, time 42.0 hrs; remark: listed apart in the source
[25] = organism: Mus musculus; details: ICR, dose 10-50 mg/kg, time 42.0 hrs; remark: listed apart in the source
[26] = test system: Mus musculus; assay: Antiinflammatory activity in ICR mouse assessed as reduction in LPS-induced neutrophils in BALF at 10 mg/kg, INH administered 18 hrs before LPS-stimulation and measured after 24 hrs by FACS analysis relative to control; assay type: functional; details: time 42 hrs
[27] = organism: Mus musculus; details: ICR, dose 10-50 mg/kg, time 42.0 hrs; remark: listed apart in the source
[28] = organism: Mus musculus; details: ICR, dose 10-50 mg/kg, time 42.0 hrs; remark: listed apart in the source
[29] = test system: Mus musculus; assay: Antiinflammatory activity in ICR mouse assessed as reduction in LPS-induced lymphocyte level in BALF at 10 mg/kg, ip administered 18 hrs before LPS-stimulation and measured after 24 hrs by FACS analysis relative to control; assay type: functional; details: time 42 hrs
[30] = test system: Mus musculus; assay: Antiinflammatory activity in ICR mouse assessed as reduction in LPS-induced macrophages level in BALF at 10 mg/kg, INH administered 18 hrs before LPS-stimulation and measured after 24 hrs by FACS analysis relative to control; assay type: functional; details: time 42 hrs
[31] = test system: Mus musculus; assay: Antiinflammatory activity in ICR mouse assessed as reduction in LPS-induced lymphocyte level in BALF at 10 mg/kg, INH administered 18 hrs before LPS-stimulation and measured after 24 hrs by FACS analysis relative to control; assay type: functional; details: time 42 hrs
[32] = test system: Mus musculus; assay: Antiinflammatory activity in ICR mouse assessed as reduction in LPS-induced neutrophil infiltration in lungs at 50 mg/kg, ip administered 18 hrs before LPS-stimulation and measured after 24 hrs by H and E staining based imaging analysis relative to control; assay type: functional; details: time 42 hrs
[33] = test system: Mus musculus; assay: Antiinflammatory activity in ICR mouse assessed as reduction in LPS-induced macrophage level in BALF at 50 mg/kg, ip administered 18 hrs before LPS-stimulation and measured after 24 hrs by FACS analysis relative to control; assay type: functional; details: time 42 hrs

## CC(C)(O)c1coc(S(=O)(=O)NC(=O)Nc2c3c(cc4c2CCC4)CCC3)c1
[1]
  inhibition in vivo at 50 mg/kg: 71.7%
[2]
  inhibition in vivo at 50 mg/kg: 52.9%
[3]
  inhibition: Active
[4]
  inhibition in vivo at 10 mg/kg: 37.1%
[5]
  inhibition: Active
[6]
  inhibition in vivo at 10 mg/kg: 35.3%
[7]
  inhibition: Active
[8]
  inhibition: Active
[9]
  inhibition in vivo at 50 mg/kg: 43.8%
[10]
  inhibition in vivo at 10 mg/kg: 53.2%
[11]
  inhibition: Active
[12]
  inhibition in vivo at 50 mg/kg: 67.8%
[13]
  inhibition: Active
[14]
  inhibition: Active
[15]
  inhibition: Active
[16]
  inhibition in vivo at 10 mg/kg: 44.2%
[17]
  inhibition: Active
[18]
  inhibition: Active
[19]
  inhibition: Active
[20]
  inhibition: inactive
[21]
  inhibition in vivo at 50 mg/kg: 34.9%
[22]
  inhibition in vivo at 50 mg/kg: 49.8%
[23]
  inhibition: Active
[24]
  inhibition: Active
[25]
  inhibition: Active
[26]
  inhibition in vivo at 10 mg/kg: 46.5%
[27]
  inhibition: Active
[28]
  inhibition: Active
[29]
  inhibition in vivo at 10 mg/kg: 40.3%
[30]
  inhibition in vivo at 10 mg/kg: 36.6%
[31]
  inhibition in vivo at 10 mg/kg: 28.3%
[32]
  inhibition in vivo at 50 mg/kg: 51.4%
[33]
  inhibition in vivo at 50 mg/kg: 76.7%
